The NIST ThermoML archive (doi:10.1021/je400529k)

Experiments:
[1] = xn = mol fraction of the nth substance listed; conditions: 101 kPa, Liquid; for viscosity: Capillary tube (Ostwald / Ubbelohde) method; for mass density: Vibrating tube method
[2] = refractive index (Na D-line) (dimensionless); xn = mol fraction of the nth substance listed; conditions: 101 kPa, Liquid, Standard Abbe refractometry

CC1CCC(C)C(C)C1 (stereo not given) [1,2,4-trimethylcyclohexane] + C1C[C@@H]2[C@H]3CC[C@H](C3)[C@@H]2C1
Conditions	mass density, [1] [kg/m3]	refractive index, [2]	viscosity, [1] [mPa·s]
293.15 K, x2 = 0	790.8	1.4331	0.886
293.15 K, x2 = 0.1	804.62	1.4381	0.986
293.15 K, x2 = 0.1996	818.49	1.4436	1.101
293.15 K, x2 = 0.3002	832.73	1.449	1.23
293.15 K, x2 = 0.4009	847.13	1.4545	1.381
293.15 K, x2 = 0.5001	861.44	1.4597	1.562
293.15 K, x2 = 0.5992	875.89	1.4651	1.759
293.15 K, x2 = 0.6998	890.7	1.4709	2.008
293.15 K, x2 = 0.7997	905.51	1.476	2.277
293.15 K, x2 = 0.9001	920.61	1.4818	2.609
298.15 K, x2 = 0	786.92	–	0.827
298.15 K, x2 = 0.1	800.71	–	0.917
298.15 K, x2 = 0.1996	814.61	–	1.021
298.15 K, x2 = 0.3002	828.84	–	1.137
298.15 K, x2 = 0.4009	843.21	–	1.273
298.15 K, x2 = 0.5001	857.51	–	1.436
298.15 K, x2 = 0.5992	871.98	–	1.613
298.15 K, x2 = 0.6998	886.77	–	1.837
298.15 K, x2 = 0.7997	901.61	–	2.076
298.15 K, x2 = 0.9001	916.71	–	2.371
303.15 K, x2 = 0	783.03	1.4285	0.774
303.15 K, x2 = 0.1	796.8	1.4339	0.856
303.15 K, x2 = 0.1996	810.7	1.4392	0.95
303.15 K, x2 = 0.3002	824.93	1.4442	1.056
303.15 K, x2 = 0.4009	839.3	1.4499	1.179
303.15 K, x2 = 0.5001	853.59	1.4554	1.326
303.15 K, x2 = 0.5992	868.06	1.4608	1.486
303.15 K, x2 = 0.6998	882.85	1.4661	1.687
303.15 K, x2 = 0.7997	897.7	1.4718	1.901
303.15 K, x2 = 0.9001	912.81	1.4775	2.165
308.15 K, x2 = 0	779.13	–	0.727
308.15 K, x2 = 0.1	792.9	–	0.802
308.15 K, x2 = 0.1996	806.79	–	0.888
308.15 K, x2 = 0.3002	821.01	–	0.984
308.15 K, x2 = 0.4009	835.38	–	1.096
308.15 K, x2 = 0.5001	849.67	–	1.23
308.15 K, x2 = 0.5992	864.13	–	1.374
308.15 K, x2 = 0.6998	878.93	–	1.556
308.15 K, x2 = 0.7997	893.78	–	1.749
308.15 K, x2 = 0.9001	908.89	–	1.985
313.15 K, x2 = 0	775.23	1.424	0.686
313.15 K, x2 = 0.1	788.98	1.429	0.753
313.15 K, x2 = 0.1996	802.87	1.4346	0.832
313.15 K, x2 = 0.3002	817.09	1.44	0.92
313.15 K, x2 = 0.4009	831.45	1.4452	1.022
313.15 K, x2 = 0.5001	845.74	1.4508	1.144
313.15 K, x2 = 0.5992	860.2	1.4561	1.275
313.15 K, x2 = 0.6998	875.01	1.4618	1.44
313.15 K, x2 = 0.7997	889.85	1.4676	1.615
313.15 K, x2 = 0.9001	904.97	1.4731	1.828
318.15 K, x2 = 0	771.32	–	0.648
318.15 K, x2 = 0.1	785.06	–	0.71
318.15 K, x2 = 0.1996	798.94	–	0.782
318.15 K, x2 = 0.3002	813.16	–	0.862
318.15 K, x2 = 0.4009	827.52	–	0.956
318.15 K, x2 = 0.5001	841.8	–	1.068
318.15 K, x2 = 0.5992	856.27	–	1.187
318.15 K, x2 = 0.6998	871.07	–	1.337
318.15 K, x2 = 0.7997	885.92	–	1.496
318.15 K, x2 = 0.9001	901.04	–	1.688
